Our source for the EC50 values is ChEMBL document CHEMBL4699602, “Stapled and Xenopus Glucagon-Like Peptide 1 (GLP-1)-Based Dual GLP-1/Gastrin Receptor Agonists with Improved Metabolic Benefits in Rodent Models of Obesity and Diabetes” (J Med Chem, 2020).

Where a SMILES comes first, the peptide text is derived from it. [ ]: non-standard residue; d: D form. Aib = CC(C)(N)C(=O)O

This test deals with Glucagon-like peptide 1 receptor (Homo sapiens, UniProt P43220). The test is described as follows: Agonist activity at human GLP-1R expressed in HEK293 cells assessed as stimulation of cAMP accumulation incubated for 20 mins. In kind it is functional, cell-based.
Glucagon-like peptide 1 receptor, sequence (P43220 whole entry): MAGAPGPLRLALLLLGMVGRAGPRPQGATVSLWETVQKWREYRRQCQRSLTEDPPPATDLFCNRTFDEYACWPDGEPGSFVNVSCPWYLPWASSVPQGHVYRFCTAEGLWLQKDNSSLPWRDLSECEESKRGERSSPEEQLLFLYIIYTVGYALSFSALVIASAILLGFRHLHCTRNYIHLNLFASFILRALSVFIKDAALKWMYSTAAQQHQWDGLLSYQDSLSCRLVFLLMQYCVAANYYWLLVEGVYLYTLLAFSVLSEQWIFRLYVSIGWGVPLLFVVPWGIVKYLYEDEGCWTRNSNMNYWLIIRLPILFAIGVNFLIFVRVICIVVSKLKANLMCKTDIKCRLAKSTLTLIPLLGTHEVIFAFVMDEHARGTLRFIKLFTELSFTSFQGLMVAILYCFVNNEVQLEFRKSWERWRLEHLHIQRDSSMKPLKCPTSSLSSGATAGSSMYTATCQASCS
For orientation: EC50 means the midpoint of the concentration-response curve. `CC[C@H](C)[C@H](NC(=O)[C@H](CS)NC(=O)[C@H](CCC(=O)O)NC(=O)[C@H](CCCCN)NC(=O)[C@H](C)NC(=O)[C@H](C)NC(=O)[C@H](CCC(=O)O)NC(=O)[C@H](CCC(=O)O)NC(=O)[C@H](CCC(=O)O)NC(=O)[C@H](CC(C)C)NC(=O)[C@H](Cc1ccc(O)cc1)NC(=O)[C@H](CCC(=O)O)NC(=O)[C@@H](NC(=O)[C@@H](NC(=O)[C@H](CC(=O)O)NC(=O)[C@H](CC(N)=O)NC(=O)[C@@H](NC(=O)[C@H](Cc1ccc(O)cc1)NC(=O)[C@@H](NC(=O)CNC(=O)[C@H](CCC(=O)O)NC(=O)C(C)(C)NC(=O)[C@@H](N)Cc1c[nH]cn1)[C@@H](C)O)[C@@H](C)O)C(C)C)[C@@H](C)O)C(=O)N[C@@H](CCC(=O)O)C(=O)N[C@@H](Cc1c[nH]c2ccccc12)C(=O)N[C@@H](CC(C)C)C(=O)N[C@H](C(=O)N[C@@H](CCCCN)C(=O)N[C@@H](CS)C(=O)N[C@@H](CCCCN)C(=O)N1CCC[C@H]1C(=O)N[C@@H](CO)C(=O)N[C@@H](CO)C(=O)NCC(=O)N[C@@H](C)C(=O)N1CCC[C@H]1C(=O)N1CCC[C@H]1C(=O)N1CCC[C@H]1C(=O)N[C@@H](CO)C(N)=O)[C@@H](C)CC` (HELM PEPTIDE1{H.[Aib].E.G.T.Y.T.N.D.V.T.E.Y.L.E.E.E.A.A.K.E.C.I.E.W.L.I.K.C.K.P.S.S.G.A.P.P.P.S.[am]}$$$$V2.0): the EC50 worked out at 0.16 nM.

Regarding `CC[C@H](C)[C@H](NC(=O)[C@H](CC(C)C)NC(=O)[C@H](Cc1c[nH]c2ccccc12)NC(=O)[C@H](CCC(=O)O)NC(=O)[C@@H](NC(=O)[C@H](CS)NC(=O)[C@H](CCC(=O)O)NC(=O)[C@H](CCCCN)NC(=O)[C@H](C)NC(=O)[C@H](C)NC(=O)[C@H](CCC(=O)O)NC(=O)[C@H](CCC(=O)O)NC(=O)[C@H](CCC(=O)O)NC(=O)[C@H](CC(C)C)NC(=O)[C@H](Cc1ccc(O)cc1)NC(=O)[C@H](CCC(=O)O)NC(=O)[C@@H](NC(=O)[C@@H](NC(=O)[C@H](CC(=O)O)NC(=O)[C@H](CC(N)=O)NC(=O)[C@@H](NC(=O)[C@H](Cc1ccc(O)cc1)NC(=O)[C@@H](NC(=O)CNC(=O)[C@H](CCC(=O)O)NC(=O)C(C)(C)NC(=O)[C@@H](N)Cc1c[nH]cn1)[C@@H](C)O)[C@@H](C)O)C(C)C)[C@@H](C)O)[C@@H](C)CC)C(=O)N[C@@H](CCCCN)C(=O)N[C@@H](CS)C(=O)N[C@@H](CCCCN)C(N)=O` (HELM PEPTIDE1{H.[Aib].E.G.T.Y.T.N.D.V.T.E.Y.L.E.E.E.A.A.K.E.C.I.E.W.L.I.K.C.K.[am]}$$$$V2.0), the concentration for a half-maximal effect (EC50) is 0.45 nM.

Take `CC[C@H](C)[C@H](NC(=O)[C@H](CC(C)C)NC(=O)[C@H](Cc1c[nH]c2ccccc12)NC(=O)[C@H](CCC(=O)O)NC(=O)[C@H](CS)NC(=O)[C@H](Cc1ccccc1)NC(=O)[C@H](CCC(=O)O)NC(=O)[C@H](CCCCN)NC(=O)[C@H](C)NC(=O)[C@H](C)NC(=O)[C@H](CCC(=O)O)NC(=O)[C@H](CCC(=O)O)NC(=O)[C@H](CCC(=O)O)NC(=O)[C@H](CC(C)C)NC(=O)[C@H](Cc1ccc(O)cc1)NC(=O)[C@H](CCC(=O)O)NC(=O)[C@@H](NC(=O)[C@@H](NC(=O)[C@H](CC(=O)O)NC(=O)[C@H](CC(N)=O)NC(=O)[C@@H](NC(=O)[C@H](Cc1ccc(O)cc1)NC(=O)[C@@H](NC(=O)CNC(=O)[C@H](CCC(=O)O)NC(=O)C(C)(C)NC(=O)[C@@H](N)Cc1c[nH]cn1)[C@@H](C)O)[C@@H](C)O)C(C)C)[C@@H](C)O)C(=O)N[C@@H](CCCCN)C(=O)NCC(=O)N[C@@H](CS)C(=O)N1CCC[C@H]1C(=O)N[C@@H](CO)C(=O)N[C@@H](CO)C(=O)NCC(=O)N[C@@H](C)C(=O)N1CCC[C@H]1C(=O)N1CCC[C@H]1C(=O)N1CCC[C@H]1C(=O)N[C@@H](CO)C(N)=O` (HELM PEPTIDE1{H.[Aib].E.G.T.Y.T.N.D.V.T.E.Y.L.E.E.E.A.A.K.E.F.C.E.W.L.I.K.G.C.P.S.S.G.A.P.P.P.S.[am]}$$$$V2.0): the EC50 was found to be 0.21 nM.

As for `CC[C@H](C)[C@H](NC(=O)[C@H](CC(C)C)NC(=O)[C@H](Cc1c[nH]c2ccccc12)NC(=O)[C@H](CCC(=O)O)NC(=O)[C@H](CS)NC(=O)[C@H](Cc1ccccc1)NC(=O)[C@H](CCC(=O)O)NC(=O)[C@H](CCCCN)NC(=O)[C@H](C)NC(=O)[C@H](C)NC(=O)[C@H](CCC(=O)O)NC(=O)[C@H](CCC(=O)O)NC(=O)[C@H](CCC(=O)O)NC(=O)[C@H](CC(C)C)NC(=O)[C@H](Cc1ccc(O)cc1)NC(=O)[C@H](CCC(=O)O)NC(=O)[C@@H](NC(=O)[C@@H](NC(=O)[C@H](CC(=O)O)NC(=O)[C@H](CC(N)=O)NC(=O)[C@@H](NC(=O)[C@H](Cc1ccc(O)cc1)NC(=O)[C@@H](NC(=O)CNC(=O)[C@H](CCC(=O)O)NC(=O)C(C)(C)NC(=O)[C@@H](N)Cc1c[nH]cn1)[C@@H](C)O)[C@@H](C)O)C(C)C)[C@@H](C)O)C(=O)N[C@@H](CCCCN)C(=O)NCC(=O)N[C@@H](CS)C(N)=O` (HELM PEPTIDE1{H.[Aib].E.G.T.Y.T.N.D.V.T.E.Y.L.E.E.E.A.A.K.E.F.C.E.W.L.I.K.G.C.[am]}$$$$V2.0), the EC50 worked out at 0.62 nM.

`CC[C@H](C)[C@H](NC(=O)[C@H](CS)NC(=O)[C@H](Cc1c[nH]c2ccccc12)NC(=O)[C@H](CCC(=O)O)NC(=O)[C@@H](NC(=O)[C@H](Cc1ccccc1)NC(=O)[C@H](CCC(=O)O)NC(=O)[C@H](CCCCN)NC(=O)[C@H](CS)NC(=O)[C@H](C)NC(=O)[C@H](CCC(=O)O)NC(=O)[C@H](CCC(=O)O)NC(=O)[C@H](CCC(=O)O)NC(=O)[C@H](CC(C)C)NC(=O)[C@H](Cc1ccc(O)cc1)NC(=O)[C@H](CCC(=O)O)NC(=O)[C@@H](NC(=O)[C@@H](NC(=O)[C@H](CC(=O)O)NC(=O)[C@H](CC(N)=O)NC(=O)[C@@H](NC(=O)[C@H](Cc1ccc(O)cc1)NC(=O)[C@@H](NC(=O)CNC(=O)[C@H](CCC(=O)O)NC(=O)C(C)(C)NC(=O)[C@@H](N)Cc1c[nH]cn1)[C@@H](C)O)[C@@H](C)O)C(C)C)[C@@H](C)O)[C@@H](C)CC)C(=O)N[C@@H](CCCCN)C(=O)NCC(=O)N[C@@H](CCCCN)C(=O)N1CCC[C@H]1C(=O)N[C@@H](CO)C(=O)N[C@@H](CO)C(=O)NCC(=O)N[C@@H](C)C(=O)N1CCC[C@H]1C(=O)N1CCC[C@H]1C(=O)N1CCC[C@H]1C(=O)N[C@@H](CO)C(N)=O` (HELM PEPTIDE1{H.[Aib].E.G.T.Y.T.N.D.V.T.E.Y.L.E.E.E.A.C.K.E.F.I.E.W.C.I.K.G.K.P.S.S.G.A.P.P.P.S.[am]}$$$$V2.0): the EC50 is 0.24 nM.

Consider `CC[C@H](C)[C@H](NC(=O)[C@H](CS)NC(=O)[C@H](Cc1c[nH]c2ccccc12)NC(=O)[C@H](CCC(=O)O)NC(=O)[C@@H](NC(=O)[C@H](Cc1ccccc1)NC(=O)[C@H](CCC(=O)O)NC(=O)[C@H](CCCCN)NC(=O)[C@H](CS)NC(=O)[C@H](C)NC(=O)[C@H](CCC(=O)O)NC(=O)[C@H](CCC(=O)O)NC(=O)[C@H](CCC(=O)O)NC(=O)[C@H](CC(C)C)NC(=O)[C@H](Cc1ccc(O)cc1)NC(=O)[C@H](CCC(=O)O)NC(=O)[C@@H](NC(=O)[C@@H](NC(=O)[C@H](CC(=O)O)NC(=O)[C@H](CC(N)=O)NC(=O)[C@@H](NC(=O)[C@H](Cc1ccc(O)cc1)NC(=O)[C@@H](NC(=O)CNC(=O)[C@H](CCC(=O)O)NC(=O)C(C)(C)NC(=O)[C@@H](N)Cc1c[nH]cn1)[C@@H](C)O)[C@@H](C)O)C(C)C)[C@@H](C)O)[C@@H](C)CC)C(=O)N[C@@H](CCCCN)C(=O)NCC(=O)N[C@@H](CCCCN)C(N)=O` (HELM PEPTIDE1{H.[Aib].E.G.T.Y.T.N.D.V.T.E.Y.L.E.E.E.A.C.K.E.F.I.E.W.C.I.K.G.K.[am]}$$$$V2.0), for which the concentration for a half-maximal effect (EC50) was 0.68 nM.

With `CC[C@H](C)[C@H](NC(=O)[C@H](CC(C)C)NC(=O)[C@H](CS)NC(=O)[C@H](CCC(=O)O)NC(=O)[C@@H](NC(=O)[C@H](Cc1ccccc1)NC(=O)[C@H](CCC(=O)O)NC(=O)[C@H](CCCCN)NC(=O)[C@H](C)NC(=O)[C@H](CS)NC(=O)[C@H](CCC(=O)O)NC(=O)[C@H](CCC(=O)O)NC(=O)[C@H](CCC(=O)O)NC(=O)[C@H](CC(C)C)NC(=O)[C@H](Cc1ccc(O)cc1)NC(=O)[C@H](CCC(=O)O)NC(=O)[C@@H](NC(=O)[C@@H](NC(=O)[C@H](CC(=O)O)NC(=O)[C@H](CC(N)=O)NC(=O)[C@@H](NC(=O)[C@H](Cc1ccc(O)cc1)NC(=O)[C@@H](NC(=O)CNC(=O)[C@H](CCC(=O)O)NC(=O)C(C)(C)NC(=O)[C@@H](N)Cc1c[nH]cn1)[C@@H](C)O)[C@@H](C)O)C(C)C)[C@@H](C)O)[C@@H](C)CC)C(=O)N[C@@H](CCCCN)C(=O)NCC(=O)N[C@@H](CCCCN)C(=O)N1CCC[C@H]1C(=O)N[C@@H](CO)C(=O)N[C@@H](CO)C(=O)NCC(=O)N[C@@H](C)C(=O)N1CCC[C@H]1C(=O)N1CCC[C@H]1C(=O)N1CCC[C@H]1C(=O)N[C@@H](CO)C(N)=O` (HELM PEPTIDE1{H.[Aib].E.G.T.Y.T.N.D.V.T.E.Y.L.E.E.E.C.A.K.E.F.I.E.C.L.I.K.G.K.P.S.S.G.A.P.P.P.S.[am]}$$$$V2.0), the EC50 amounted to 0.13 nM.

For the compound `CC[C@H](C)[C@H](NC(=O)[C@H](CC(C)C)NC(=O)[C@H](CS)NC(=O)[C@H](CCC(=O)O)NC(=O)[C@@H](NC(=O)[C@H](Cc1ccccc1)NC(=O)[C@H](CCC(=O)O)NC(=O)[C@H](CCCCN)NC(=O)[C@H](C)NC(=O)[C@H](CS)NC(=O)[C@H](CCC(=O)O)NC(=O)[C@H](CCC(=O)O)NC(=O)[C@H](CCC(=O)O)NC(=O)[C@H](CC(C)C)NC(=O)[C@H](Cc1ccc(O)cc1)NC(=O)[C@H](CCC(=O)O)NC(=O)[C@@H](NC(=O)[C@@H](NC(=O)[C@H](CC(=O)O)NC(=O)[C@H](CC(N)=O)NC(=O)[C@@H](NC(=O)[C@H](Cc1ccc(O)cc1)NC(=O)[C@@H](NC(=O)CNC(=O)[C@H](CCC(=O)O)NC(=O)C(C)(C)NC(=O)[C@@H](N)Cc1c[nH]cn1)[C@@H](C)O)[C@@H](C)O)C(C)C)[C@@H](C)O)[C@@H](C)CC)C(=O)N[C@@H](CCCCN)C(=O)NCC(=O)N[C@@H](CCCCN)C(N)=O` (HELM PEPTIDE1{H.[Aib].E.G.T.Y.T.N.D.V.T.E.Y.L.E.E.E.C.A.K.E.F.I.E.C.L.I.K.G.K.[am]}$$$$V2.0), the EC50 was found to be 0.33 nM.

Consider “H-H[Aib]EGTYTNDVCEYLEEECAKEFIEWLIKGKPSSGAPPSKKKKKK-NH2 (cysteines drawn unpaired)”, for which the EC50 was determined as 0.13 nM.

With “H-H[Aib]EGTYTNDVTECLEEEAACEFIEWLIKGKPSSGAPPSKKKKKK-NH2 (cysteines drawn unpaired)”, the EC50 stood at 0.16 nM.

On to “H-H[Aib]EGTYTNDVTEYLCEEAAKECIEWLIKGKPSSGAPPSKKKKKK-NH2 (cysteines drawn unpaired)”, for which the EC50 worked out at 0.17 nM.

On to “H-H[Aib]EGTYTNDVTEYLECEAAKEFCEWLIKGKPSSGAPPSKKKKKK-NH2 (cysteines drawn unpaired)”, for which the concentration giving a half-maximal response (EC50) was 0.12 nM.
